≈ marks a conversion by molar mass, not a printed value.
Key:
[1] = drug release of EPI micelles by dialysis in PBS buffer; type: physicochemical; conditions: pH = 7.4, 6.4 and 5.6
Experimental: […] The outside PBS buffer is collected at different time points and then the fresh 30 mL PBS buffer is replaced. The drug concentration is measured and calculated based on a calibration curve generated in PBS buffer with the same pH value.

KB cells = experiment: cytotoxic test (IC50) for the EPI-loaded micelles (MTT); type: cell-based; conditions: Homo sapiens
Experimental: The results of the cytotoxic test for the drug-loaded micelle are presented as the half maximal inhibitory concentration, i.e. IC50, which is used to examine the biological or biochemical inhibitory effect of a compound. Thus, the IC50 represents the concentration of the drug-loaded micelle required to inhibit the growth of a half of the cancer cells.
5×10^3 cells/well KB cells are incubated in 100 μL of RPMI 1640 medium, and transferred into the 96-well plate for incubating 24 hrs.
Epirubicin.HCl and drug-loaded micelle is prepared at 20 μg/mL, in RPMI 1640 medium. After a serial of dilution, 100 μL/well of each concentration (20, 10, 5, 2.5, 1.25, 1 and 0.5 μg/mL) is added into the cultured plate for 24 hrs incubation.
After 24 hrs incubation, the medium containing the drug and the micelle is removed, and the plate is washed with 100 μL/well PBS buffer at pH=7.4 and further incubated in 100 μL/well fresh medium for 24 and 48 hrs.
The plate is added with 50 μL/well (2 mg/mL) MTT and placed in the incubator for 3 hrs. […] Then, the cell viability is calculated using the ELISA reader.

KB cell line = experiment: intracellular delivery by confocal laser scanning microscope; type: cell-based, human; conditions: 0.625 μg/mL, cells incubated for 1 h
Experimental: Human oral cancer cell line (KB cell line) is used to investigate the cell viability of the carrier and the drug-loaded micelle, and the expression of the drug-loaded micelle through the endocytosis is observed using a confocal laser scanning microscope (CLSM). The 4′,6-diamidino-2-phenylindole (DAPI) and the lysosomal probe (Lyso-Traker) are used for cell core staining and the lysosome staining, respectively. The drug at the concentration of 0.625 μg/mL is added according to the cell viability for the drug-loaded micelle. The KB cell line is cultured for 0.5, 1, 3, and 24 hrs, in which the blue parts are shown by the DAPI staining at the cell core; the red is the fluorescence of the EPI; the green is the fluorescence of the Lyso-Traker, and the purple is the overlap of EPI and DAPI and the yellow is the overlap of Lyso-Traker and EPI. The amounts of EPI entering the nuclei and the lysosomes (the purple and the yellow images) increase with the increase in the incubation time.
Intracellular delivery is observed using the confocal microscope. 18 mm cover slip is immersed in 0.1N HCl solution for one day and washed to remove the impurities on the slide. After being rinsed by the ddH2O, the slide is wiped and then immersed in 75% alcohol. […]

[2] = biological target: folic acid receptors (FAR); conditions: read-out: dissociation constant (kd); cited from earlier work

| SMILES | drug release rate (in words) [1] | IC50 (KB cells; incubating time 24 hr) [µg/mL] | IC50 (KB cells; incubating time 48 hr) [µg/mL] | intracellular location of EPI fluorescence (KB cell line) | Kd [2] [nM] |
| --- | --- | --- | --- | --- | --- |
| COc1cccc2c1C(=O)c1c(O)c3c(c(O)c1C2=O)C[C@@](O)(C(=O)CO)C[C@@H]3O[C@H]1C[C@H](N)[C@@H](O)[C@H](C)O1 [EPI, Epirubicin] | quickly released in a short time | 0.35 (≈ 0.644 µM) | 0.2 (≈ 0.368 µM) | observed in the cell nuclei rather than in cytoplasm | – |
| Nc1nc2ncc(CNc3ccc(C(=O)N[C@@H](CCC(=O)O)C(=O)O)cc3)nc2c(=O)[nH]1 [folic acid] | – | – | – | – | 0.1 |

Reference: US20130136714A1, “FUNCTIONALIZED POLYMER NANOPARTICLES AND THE PHARMACEUTICAL USE THEREOF” (KAOHSIUNG MEDICAL UNIVERSITY, priority 2011, published 2013)
